Tests used:
[1] = molecular target: T1, CAT from bovine liver (Bos taurus, UniProt P00432); test: H2O2 disappearance at […] nm; format: biochemical; details: 30 min preincubation at 25 °C; NO2-Ln concentration not given; MeOH vehicle control; regioisomer not defined
T1 construct: commercial bovine liver catalase (Sigma)
T1 sequence (P00432 2-527): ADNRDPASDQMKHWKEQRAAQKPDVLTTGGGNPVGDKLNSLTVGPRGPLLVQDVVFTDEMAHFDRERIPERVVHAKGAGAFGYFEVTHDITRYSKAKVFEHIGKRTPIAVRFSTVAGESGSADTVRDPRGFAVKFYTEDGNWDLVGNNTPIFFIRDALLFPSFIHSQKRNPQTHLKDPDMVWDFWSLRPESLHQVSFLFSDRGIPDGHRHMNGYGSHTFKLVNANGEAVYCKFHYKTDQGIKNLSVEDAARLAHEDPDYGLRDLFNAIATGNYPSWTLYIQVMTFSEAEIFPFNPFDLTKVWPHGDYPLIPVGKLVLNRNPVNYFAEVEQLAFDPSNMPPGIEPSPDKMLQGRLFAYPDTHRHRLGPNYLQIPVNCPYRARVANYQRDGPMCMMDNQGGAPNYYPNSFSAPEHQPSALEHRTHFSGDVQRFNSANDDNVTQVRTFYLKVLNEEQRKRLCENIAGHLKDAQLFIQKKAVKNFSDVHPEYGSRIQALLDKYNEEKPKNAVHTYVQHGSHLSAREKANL

[2] = molecular target: T2, Arabidopsis recombinant CAT2 protein (Arabidopsis thaliana, UniProt P25819); test: H2O2 disappearance at […] nm; format: biochemical; details: 30 min preincubation at 25 °C; covalent (nitroalkylation of His); NO2-Ln concentration not given; MeOH vehicle control; regioisomer not defined
T2 construct: commercial recombinant protein (LSBio, Life Span BioSciences); heme enzyme
T2 sequence (P25819 1-492): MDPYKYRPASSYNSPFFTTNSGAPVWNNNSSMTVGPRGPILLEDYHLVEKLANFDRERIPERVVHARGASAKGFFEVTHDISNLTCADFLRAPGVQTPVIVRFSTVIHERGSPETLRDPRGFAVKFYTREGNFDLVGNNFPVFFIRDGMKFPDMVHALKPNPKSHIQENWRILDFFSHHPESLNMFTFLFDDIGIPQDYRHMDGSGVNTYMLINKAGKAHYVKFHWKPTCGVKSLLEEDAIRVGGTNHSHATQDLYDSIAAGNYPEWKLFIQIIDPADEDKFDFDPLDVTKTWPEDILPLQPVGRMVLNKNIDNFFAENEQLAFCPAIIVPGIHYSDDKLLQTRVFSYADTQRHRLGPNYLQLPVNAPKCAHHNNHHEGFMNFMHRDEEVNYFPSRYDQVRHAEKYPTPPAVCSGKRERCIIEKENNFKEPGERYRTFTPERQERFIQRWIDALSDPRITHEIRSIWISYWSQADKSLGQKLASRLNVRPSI

Substance: NO2-Ln
- % inhibition [1]: 60%
- % inhibition [2]: 36%
